These results are taken from PMC13379085 (PLOS Neglected Tropical Diseases, 2026).

Structures are written as SMILES. Values after ≈ are worked out from the molar mass of the structure shown. Like-named read-outs stand apart in the source and are kept apart here. Bounds are passed on as bounds.

In general, IC50 refers to the concentration at which inhibition is half-maximal. Broadly, the MIC50 is the lowest concentration that inhibits either 50% of growth or 50% of the strains tested, depending on the study.

The test system of data set [1] is Intracellular L. donovani amastigotes. As to the kind of experiment: Luminescence-based assay of intracellular L. donovani burden in THP-1 macrophages. The conditions noted are these: for IC50: THP1 macrophages, luminescence assay, 72 hours of treatment, read-out: Intracellular L. donovani amastigotes Lum IC50; for Selectivity 24h LC50/ Lum IC50: host-directed effect vs cytotoxicity in THP-1. The format is cell-based, Leishmania donovani. How it is done: Luminescent strains, L. donovani LV82 expressing firefly luciferase (a kind gift from Dr. Abhay Satoskar, Ohio State University) and L. mexicana (NR-51210, ATCC) expressing renilla luciferase were used to evaluate the effect of the compounds in intracellular and extracellular conditions. Wild-type L. donovani LV82 (ATCC) were used for Giemsa staining based experiments. All parasites were cultured at 25°C and 5% CO2 in M199 media (Corning) supplemented with 10% FBS, 1% Penicillin/Streptomycin, and Hemin (0.01 mg/mL), and used in experiments up to passage 15.
THP-1 cells were seeded in a 96 well plate (25,000 cells/well) overnight then differentiated with 150 nM phorbol 12-myristate 13-acetate (PMA) over 72 hours (S1 Fig). […] Briefly, promastigotes of a known cell density were resuspended in RPMI media (with 10% FBS, 1% P/S and 0.05 mM β-mercaptoethanol) and incubated with adhered THP-1 cells over 18 hours. After infection, cells were washed three times with fresh media to remove extracellular promastigotes.
Infected macrophages were then treated with compounds solubilized in DMSO ranging from 0.1-10 µM in concentrations. After 72 hours of treatment, the viability of the amastigotes within macrophages was determined using Promega firefly luminescence assay (Cat E1500) or Pierce Renilla luciferase assay (Cat 16166) for L. donovani and L. mexicana strains, respectively. Briefly, media was removed, and cells were lysed with the assay lysis buffer. The luciferase substrate was then incubated with the lysed cells for 10 min at room temperature and luminescence of live Leishmania was measured in a white opaque 96 well plate using a Biotek plate reader.

For the next data set, the system named is THP-1 macrophages. The data set is described as follows: MTT viability of THP-1 macrophages (host cell cytotoxicity). The format is cell-based. The conditions noted are these: for CC50: MTT assay. As for the experimental part:
Human monocytes, THP-1 (ATCC, TIB002) were used as host cells for Leishmania infection and to assess drug cytotoxicity. The cells were cultured at 37C, 5% CO2 in RPMI medium (ATCC) supplemented with 10% FBS, 1% Penicillin/Streptomycin and 0.05 mM of β-mercaptoethanol. Cells were used in experiments up to passage 10.
Effect of the compounds on THP-1 cell viability measured using thiazolyl blue tetrazolium bromide which measures cell metabolic activity (MTT). […] Macrophages were then treated with compounds resuspended in RPMI media (1–50 µM) for 24 hours. Media was replaced with thiazolyl blue tetrazolium bromide solubilized in RPMI media (0.5 mg/mL) and incubated at 37°C for 2 hours. The reduced formazan crystals were solubilized with isopropyl alcohol and the absorbance of the resulting solution was measured at 560 nm with a background subtraction at 670 nm. […] This process was repeated with a 72-hr incubation and extended concentration range (1–300 µM) for select compounds.
A general note: Tetrazolium assays rely on reduction of a dye to a coloured formazan, in cell work by metabolically active cells.

Data set [2] relates to Intracellular L. donovani amastigotes. As to the kind of experiment: Image-based Giemsa staining of intracellular L. donovani in bone marrow derived macrophages. Format: cell-based, Leishmania donovani. The conditions noted are these: 72-hour incubation. As for the experimental part:
(§1) Bone marrow derived macrophages (BMDMs) were isolated from BALB/c mice and cultured as previously described. […] Completely differentiated BMDMs are obtained after 7 days of culture with media change every 2 days. Harvested cells are seeded onto 10 mm glass cover slips at 5 x 10^5 cells/ well of a 24 well plate in DMEM media (without LCM) and allowed to adhere overnight. BMDM cells are then infected overnight with LV82 L. donovani or L. mexicana (NR-51210) at a multiplicity of infection of 10. After infection, cells were washed three times with fresh media to remove extracellular promastigotes and treated with compounds for a 72-hour incubation. BMDM cells were then washed with phosphate buffered saline, fixed with ice-cold methanol, and stained with Giemsa (5% v/v in water). The cover slips with stained cells are mounted onto glass slides and imaged on EVOS XL (100X, Thermo Fisher Scientific). Leishmania amastigotes per 100 macrophages were determined in a blinded manner.

Data set [3] has as its system Extracellular L. donovani promastigotes. The data set is described as follows: Resazurin viability assay of extracellular L. donovani promastigotes. Format: cell-based, Leishmania donovani. The conditions noted are these: for Extracellular L. donovani promastigotes MIC50: 72-hour incubation. How it is done:
(§2) The effect of compounds on extracellular promastigotes was evaluated using a resazurin-based assay as described previously. In short, late log phase Leishmania promastigotes were seeded in a 96 well plate at 1 x 10^5 parasites per well and treated with drugs (0.5 – 200 µM) for 72 hours at 25°C. Ten microliters of Resazurin (0.02% w/v) were added to the treated parasites to achieve a final concentration of 0.002% w/v and incubated for 24 hours. Viability of the promastigotes was assessed by fluorescence (excitation 544 nm, emission 590 nm, SpectraMax M2, Molecular Devices).
Background: Resazurin is reduced to fluorescent resorufin, in cell work by metabolically active cells.

Data set [4] has as its system Intracellular L. mexicana amastigotes. As to the kind of experiment: microbe, parasite or virus in culture. The format is cell-based, Leishmania mexicana. The conditions noted are these: Leishmania mexicana, Macrophage, 72 h, bone marrow derived macrophages, Giemsa staining, 72-hour incubation. How it is done:
as §1

The subject of data set [5] is Extracellular L. mexicana promastigotes. The data set is described as follows: Resazurin viability assay of extracellular L. mexicana promastigotes. Format: cell-based, Leishmania mexicana. The conditions noted are these: Leishmania mexicana, 72-hour incubation. How it is done:
as §2

The subject of another data set is LV82 L. donovani. As to the kind of experiment: Giemsa staining of intracellular L. donovani in BMDMs from wildtype C57BL/6 or lysozyme knockout mice. The conditions noted are these: 72-hour incubation. The format is cell-based, Leishmania donovani. From the text:
B6.129P2-Lyz2^tm1(cre)Ifo/J mice (stock #004781, herein termed ‘Lys K/O’) were obtained from Jackson Laboratory. This strain has a nuclear-localized Cre recombinase inserted into the first coding ATG of the lysozyme 2 gene (Lyz2) which eliminates endogenous Lyz2 gene function. Wildtype C57BL6/J mice (stock #000664) were obtained as a control.
Bone marrow derived macrophages (BMDMs) were isolated from both mice and cultured as described above in “Image-based Evaluation of Intracellular Anti-Leishmanial Activity”. BMDMs were seeded onto glass cover slips, infected with LV82 L. donovani at a multiplicity of infection of 1:10. Cells were washed to remove extracellular promastigotes and treated with compounds (197, amphotericin B) for a 72-hour incubation. BMDM cells were then washed with phosphate buffered saline, fixed with ice-cold methanol, and stained with Giemsa (5% v/v in water). The cover slips with stained cells are mounted onto glass slides and imaged on EVOS XL (100X, Thermo Fisher Scientific). Leishmania amastigotes per 100 macrophages were determined in a blinded manner.

The next data set concerns L. donovani. The conditions noted are these: cited from earlier work.
The mark [6] stands for this setting: 72-hour incubation, read-out: 72 hr viability of THP-1 macrophages LC50.
[7] abbreviates: read-out: 24 hr viability of THP-1 macrophages 24h LC50, 24-hour incubation.

In the case of `N[C@H]1CCN(c2ccc(-n3nc(C(F)(F)F)cc3-c3ccc(-c4ccc(C(F)(F)F)cc4)cc3)cc2)C1` [Compound 130], the results for the IC50 in data set [1] and in data set [2] were 0.2 µM and 1.6 µM, respectively. The CC50 is 6.4 µM in the data set on THP-1 macrophages (setting [6]) and 4.2 µM in the data set on THP-1 macrophages (setting [7]). In data set [3], the “Extracellular L. donovani promastigotes MIC50” value stood at 2.1 µM.
Turning to `Oc1ccccc1CN1CCC(Nc2ccc(-n3nc(C(F)(F)F)cc3-c3ccc(-c4ccc(C(F)(F)F)cc4)cc3)cc2)C1` (stereo not drawn) [Compound 91], the IC50 is 1.4 µM in data set [1] and 2.4 µM in data set [2]. The CC50 in the data set with THP-1 macrophages (setting [6]) was 53.4 µM; in the data set on THP-1 macrophages (setting [7]), over 50 µM. The “Extracellular L. donovani promastigotes MIC50” value in data set [3] turned out to be 56.3 µM.
Consider `N#Cc1ccc(CNCC(=O)Nc2ccc(-n3nc(C(F)(F)F)cc3C3CCCCC3)cc2)cc1` [Compound 354], for which the “Selectivity 24h LC50/ Lum IC50” value in data set [1] worked out at 44.9. In addition, the IC50 in data set [4] came to 3.5 µM. This molecule registered an MIC50 in data set [5] of 30.7 µM (≈ 14.8 µg/mL).
`N#Cc1cccc(CN2CCC(Nc3ccc(-n4nc(C(F)(F)F)cc4-c4ccc(-c5ccc(C(F)(F)F)cc5)cc4)cc3)C2)c1` (stereo not drawn) [Compound 53]: in data set [1], the “Selectivity 24h LC50/ Lum IC50” value was over 112.6. Besides, the “reduction in macrophage viability” value in the data set with THP-1 macrophages (72 hr incubation up to 300µM) is given as “Neither compound had any reduction”. Besides, the “direct effects on extracellular promastigote viability” value in data set [3] (for 53 strain not specified) is “no direct effects”. In data set [5], this molecule returned an MIC50 of over 200 µM.
For the molecule `CC(C)(C)C#Cc1ccc(-c2cc(C(F)(F)F)nn2-c2ccc(N3CCNCC3)cc2)cc1` [Compound 44], the values for the IC50 in data set [1] and in data set [2] were 0.9 µM and 1 µM, respectively. The CC50 in the data set on THP-1 macrophages (setting [6]) worked out at 14.5 µM; with THP-1 macrophages (setting [7]), 7.4 µM. In addition, the “Extracellular L. donovani promastigotes MIC50” value in data set [3] amounted to 1.9 µM.
In the same order, the values of `Nc1ccc(CNC2CCN(c3ccc(-n4nc(C(F)(F)F)cc4-c4ccc(-c5ccc(C(F)(F)F)cc5)cc4)cc3)C2)cc1` (stereo not drawn) [Compound 23] are 0.4 µM, 0.9 µM, 6.9 µM, 5.8 µM and 4.0 µM.
In the case of `O=C(Nc1ccc(-n2cc(C(F)(F)F)nc2-c2ccc(-c3ccccc3)cc2)cc1)C1CCN(Cc2ccccc2)C1` (stereo not drawn) [Compound 86], the IC50 came out at 1.4 µM in data set [1] and 0.6 µM in data set [2]. Besides, the CC50 was found to be 8.2 µM with THP-1 macrophages (setting [6]) and 21.9 µM in the data set on THP-1 macrophages (setting [7]). In data set [3], the “Extracellular L. donovani promastigotes MIC50” value is given as 3.2 µM.
On to `C[C@@H]1[C@H](O)[C@@H](C)/C=C/C=C/C=C/C=C/C=C/C=C/C=C/[C@H](O[C@@H]2O[C@H](C)[C@@H](O)[C@H](N)[C@@H]2O)C[C@@H]2O[C@](O)(C[C@@H](O)C[C@@H](O)[C@H](O)CC[C@@H](O)C[C@@H](O)CC(=O)O[C@H]1C)C[C@H](O)[C@H]2C(=O)O` [Amphotericin B, reference compound], for which the “anti-leishmanial activity in WT and Lys K/O BMDMs” value with LV82 L. donovani was “retained its anti-leishmanial activity in both WT and Lys K/O BMDMs”.
Turning to `NC1CCN(c2ccc(-n3nncc3-c3ccc(C(F)(F)F)cc3)cc2)C1` (stereo not drawn) [Compound 134], the “Selectivity 24h LC50/ Lum IC50” value in data set [1] was 42.1. For the same molecule, the IC50 in data set [4] was 0.8 µM. This molecule had an MIC50 in data set [5] of 16.5 µM (≈ 6.16 µg/mL).
For the molecule `NCC(=O)Nc1ccc(-n2ccnc2-c2ccc(-c3ccc(C(F)(F)F)cc3)cc2)cc1` [Compound 158], the IC50 in data set [1] amounted to 0.2 µM; in data set [2], 0.6 µM. Further, the “intracellular activity (primary screen)” value in data set [1] (imidazole series) is listed as “retaining potent intracellular activity”. The CC50 was 16.5 µM in the data set on THP-1 macrophages (setting [6]) and 16 µM in the data set with THP-1 macrophages (setting [7]). Further, the “Extracellular L. donovani promastigotes MIC50” value in data set [3] turned out to be 4.6 µM.
Take `NCC(=O)Nc1ccc(-n2nc(C(F)(F)F)cc2-c2ccc3c(ccc4ccccc43)c2)cc1` [AR-12, reference compound]: in data set [4], the midpoint of inhibition, the IC50, lay at 1.5 µM. The molecule further yielded an MIC50 in data set [5] of 15.1 µM (≈ 6.95 µg/mL). Also, the “direct effect on the promastigote” value in the data set with L. donovani was “no direct effect”. In addition, the “parasite burden of L. donovani in infected macrophages” value with L. donovani (in vitro and in vivo) was “decrease the parasite burden”.
With `FC(F)(F)c1ccc(-c2ccc(-c3cc(C(F)(F)F)nn3-c3ccc(NC4CCNC4)cc3)cc2)cc1` (racemic) [Compound 25], the concentration for half-maximal inhibition (IC50) was 0.7 µM in data set [1] and 2.5 µM in data set [2]. Moreover, the CC50 with THP-1 macrophages (setting [6]) was found to be 6.3 µM; in the data set on THP-1 macrophages (setting [7]) it was 28.9 µM. For the same molecule, the “Extracellular L. donovani promastigotes MIC50” value in data set [3] is listed as 2.1 µM.
In the same order, the values of `Oc1ccc(CNC2CCN(c3ccc(-n4nc(C(F)(F)F)cc4C4CCCCC4)cc3)CC2)cc1` [Compound 319] are 0.8 µM, 3.4 µM, 7.2 µM, 6.4 µM and 0.8 µM.
Consider `N[C@@H]1CCN(c2ccc(-n3nc(C(F)(F)F)cc3-c3ccc(-c4ccc(C(F)(F)F)cc4)cc3)cc2)C1` [Compound 129], for which the IC50 in data set [1] turned out to be 0.1 µM; in data set [2], 0.4 µM. The figures for the CC50 in the data set with THP-1 macrophages (setting [6]) and with THP-1 macrophages (setting [7]) were 6.2 µM and 6.3 µM, respectively. In addition, the “Extracellular L. donovani promastigotes MIC50” value in data set [3] was determined as 1.7 µM.
In the same order, the values of `NCC(=O)Nc1ccc(-n2cc(C(F)(F)F)nc2-c2ccc(-c3ccccc3)cc2)cc1` [Compound 50] are 1.5 µM, 9.1 µM, 42.7 µM, 23.5 µM and 14.6 µM.
